Data set [1] relates to Streptococcus pneumoniae 1 Neufeld. Type of data set: in vivo, Streptococcus pneumoniae (male mice, Std-ddY). The conditions noted are these: 336 h, read-out: median effective dose (ED50).
Data set [2] concerns E. coli NIHJ JC-2. Put plainly: In vitro antibacterial activity (twofold agar-dilution method). Format: cell-based. Particulars: Escherichia coli, NIHJJC2, 20 h, read-out: minimum inhibitory concentration (MIC). As to the method:
(§1) The figures in the table show minimum inhibitory concentrations (MIC) (μg/ml), calculated for free base. The minimum inhibitory concentration was determined by the twofold agar-dilution method, which was recommended by Japan Society of Chemotherapy (Chemotherapy, 29(1), 76(1981)), using Muller-Hinton agar. One loopful of an overnight culture of test organisms in Mueller-Hinton broth was inoculated onto 10-ml drug-containing agar layers in petri dishes. Bacterial inocula contained approximately 10^6 colonyl-formingunits. Bacterial growth was observed after 20-hour incubation at 37° C. The MIC was defined as the lowest drug concentration which prevented visible bacterial growth.

The test system of data set [3] is S. pyogenes Cook. The description is as above. Type of data set: cell-based. Particulars: Streptococcus pyogenes, 20 h, 37° C., calculated for free base, read-out: minimum inhibitory concentration (MIC). The method, then:
as §1

Data set [4] relates to P. Aeruginosa 12. The data set is described as above. Type of data set: cell-based. Particulars: Pseudomonas aeruginosa, 20 h, read-out: minimum inhibitory concentration (MIC). The method, then: as §1
For data set [5], the system named is S. aureus No. 80. The data set is described as above. Type of data set: cell-based. Particulars: Staphylococcus aureus, NO.80, 20 h, read-out: minimum inhibitory concentration (MIC). The method, then: as §1
The test system of data set [6] is S. epidermidis No. 8. The data set is described as above. Type of data set: cell-based. Particulars: Staphylococcus epidermidis, NO.8, 20 h, read-out: minimum inhibitory concentration (MIC). The method, then: as §1
Data set [7] deals with S. aureus Terajima. The data set is described as above. Format: cell-based. Particulars: Staphylococcus aureus, 20 h, read-out: minimum inhibitory concentration (MIC). The method, then: as §1
Data set [8] concerns E. coli P-5101. Described as above. Format: cell-based. The conditions noted are these: Escherichia coli, P5101, 20 h, read-out: minimum inhibitory concentration (MIC). The method, then: as §1
The test system of data set [9] is Flavobacterium sp P-7201. The data set is described as above. Type of data set: cell-based. Particulars: Flavobacterium, P7201, 20 h, read-out: minimum inhibitory concentration (MIC). The method, then:
as §1

Data set [10] relates to S. marcescens IFO 3736. The data set is described as above. Type of data set: cell-based. The conditions noted are these: Serratia marcescens, IFO3736, 20 h, read-out: minimum inhibitory concentration (MIC). The method, then:
as §1

In data set [11] the test system is S. aureus 209 JC-1. The data set is described as above. Type of data set: cell-based. The conditions noted are these: Staphylococcus aureus, 209JC1, 20 h, read-out: minimum inhibitory concentration (MIC). As to the method: as §1
Data set [12] relates to C. Trachomatics G/ur 1317. Put plainly: Antichlamydia activity (inclusion bodies in McCoy cells). Type of data set: cell-based. Particulars: 36° C., 40-48 h, calculated for free base, read-out: minimum inhibitory concentration (MIC). The method, then:
(§2) Minimum inhibitory concentrations (MIC) were determined as follows. McCoy cells were freshly cultured in Eagle's minimum essential medium (EMEM) (Flow) supplemented with 4% fetal bovine serum and 0.03% L-glutamine. The cells were trypsinized and suspended in the same culture medium at a cell concentration of 1-2×10^5 cells/ml. One ml of the cell suspension was pipetted into flat-bottomed plastic tubes (14 mm in diameter) containing a cover slip (12 mm in diameter). The tubes were incubated in 5% CO2 -air at 36° C. for 20 hours. One-half ml of a chlamydial suspension (ca. 1-4×10^3 inclusion body forming units) was added into each tube, which was then centrifuged at 1500×g for 60 minutes. The tubes were incubated for 1 hour at 36° C. The medium was changed with 1 ml of EMEM supplemented with 8% fetal bovine serum, 0.03% L-blutamine, 1μg/ml cycloheximide and 0.5% glucose, and containing drugs at various concentrations. After further incubation at 36° C. for 40-48 hours, the cells on the cover glasses were stained with the Giemsa's solution. […] The MIC was defined as the lowest drug concentration where there were no inclusion bodies in all the cells on the cover slip.

The subject of data set [13] is C. Trachomatics G/ur 1483. The description is as above. Format: cell-based. The conditions noted are these: 36° C., 40-48 h, calculated for free base, read-out: minimum inhibitory concentration (MIC). As to the method:
as §2

Data set [14] deals with C. Trachomatics G/ur 931. The description is as above. Type of data set: cell-based. Particulars: 36° C., 40-48 h, calculated for free base, read-out: minimum inhibitory concentration (MIC). As to the method: as §2
Data set [15] concerns C. Trachomatics G/ur 1467. The data set is described as above. Format: cell-based. The conditions noted are these: 36° C., 40-48 h, calculated for free base, read-out: minimum inhibitory concentration (MIC). The method, then:
as §2

The subject of data set [16] is M. salivarium PG-20. Description: Antimycoplasma activity (twofold agar dilution method). Type of data set: cell-based. Particulars: 48 h, read-out: minimum inhibitory concentration (MIC). The method, then: (§3) The figures in the table show minimum inhibitory concentrations (MIC), (μg/ml), calculated for free base.
(§4) Minimum inhibitory concentrations (MIC) were determined by the twofold agar dilution method. The media used were Chanock broth and agar PPLD broth and agar (Difco) supplemented with 20% horse serum and 10% fresh yeast extract). A 2-3 day broth culture of organisms was diluted with Chanock broth to a cell density of about 10^6 cells/ml. One loopful (about […]) of the organism dilution was spotted onto 10-ml drug containing Chanock agar in petri dishes using a multiple inoculator (Cathra International). The petri dishes were incubated at 37° C. for 7 and 2 days for Mycoplasma pneumoniae and other Mycoplasma spp. respectively. Incubation was performed anaerobically using the Gaspak anaerobic system (BBL) for M. buccale, M. fermentans, M. hominis, M. orale and M. salivarium, and aerobically for other Mycoplasma spp. The MIC was defined as the lowest compound concentration at which no growth of organism was detected.
Background: In agar dilution, organisms are placed on agar that contains the substance at set levels.

Data set [17] concerns A. laidlawii PG-8. The description is as above. Format: cell-based. Particulars: Acholeplasma laidlawii, PG8, 48 h, read-out: minimum inhibitory concentration (MIC). As to the method:
as §3, §4

In data set [18] the test system is M. buccale CH-20249. Described as above. Type of data set: cell-based. The conditions noted are these: 48 h, read-out: minimum inhibitory concentration (MIC). The method, then:
as §3, §4

The subject of data set [19] is M. hyorhinis BST-7. The data set is described as above. The conditions noted are these: Mesomycoplasma hyorhinis, BST7, 48 h, read-out: minimum inhibitory concentration (MIC). Type of data set: cell-based. The method, then:
as §3, §4

Data set [20] concerns M. orale CH-19299. Described as above. Format: cell-based. Particulars: 48 h, read-out: minimum inhibitory concentration (MIC). The method, then:
as §3, §4

Data set [21] concerns M. arginini G-230. The data set is described as above. The conditions noted are these: 48 h, read-out: minimum inhibitory concentration (MIC). Type of data set: cell-based. The method, then: as §3, §4
For data set [22], the system named is M. fermentans PG-18. The data set is described as above. Format: cell-based. The conditions noted are these: Mycoplasmopsis fermentans, PG18, 48 h, read-out: minimum inhibitory concentration (MIC). The method, then:
as §3, §4

Data set [23] deals with M. hominis PG-21. The description is as above. Format: cell-based. Particulars: Metamycoplasma hominis, PG21, 48 h, read-out: minimum inhibitory concentration (MIC). As to the method:
as §3, §4

The subject of data set [24] is Staphylococcus aureus 50774. Format: in vivo, Staphylococcus aureus (male mice, Std-ddY). The conditions noted are these: Staphylococcus aureus, 50774, po, 336 h, read-out: median effective dose (ED50). The text has this:
Staphylococcus aureus 50774
Intravenous infection with 5×10^8 cells per mouse suspended in saline.
For 7 days for other organisms.

The test system of data set [25] is M. pneumoniae Mac. Put plainly: Antimycoplasma activity (twofold agar dilution method). Format: cell-based, Mycoplasma pneumoniae. The conditions noted are these: Mycoplasmoides pneumoniae, 168 h, read-out: minimum inhibitory concentration (MIC). As to the method: as §3, §4
For data set [26], the system named is Streptococcus pyogenes A65. Particulars: A65, in Mus musculus, po, 168 h, read-out: median effective dose (ED50).
The nature of data set [27]: Urinary excretion in mice (thin-layer cup-plated method, Escherichia coli Kp indicator). Particulars: mouse, urine, oral, 5 mg/kg, read-out: Urinary recovery for 24 hours. Format: in vivo. The method, then: A suspension containing each of compounds was orally administered to mice at a dose of 5 mg/kg. Urine was collected over a period of 24 hours after adminstration. The levels of the compounds in urine were determined by the thin-layer cup-plated method using Escherichia coli Kp as an indicator organism.

Values after ≈ are worked out from the molar mass of the structure shown. Like-named read-outs stand apart in the source and are kept apart here. Bounds are passed on as bounds.

Regarding `O=C(O)c1cn(C2CC2)c2cc(N3CCNCC3)c(F)cc2c1=O` [Compound A, reference compound], the median effective dose (ED50) in [1] (po) is 31.3 mg/kg; in [24] it was 8.24 mg/kg. In addition, the MIC is 0.0063 µg/mL (≈ 0.019 µM) in data set [2]; 0.2 µg/mL (≈ 0.604 µM) in data set [3]; 0.1 µg/mL (≈ 0.302 µM) in [4]; 0.39 µg/mL (≈ 1.18 µM) in data set [5]; 0.1 µg/mL (≈ 0.302 µM) in data set [6]; 0.1 µg/mL (≈ 0.302 µM) in data set [7]. For the same compound, the MIC is 0.0063 µg/mL (≈ 0.019 µM) in data set [8]; 0.39 µg/mL (≈ 1.18 µM) in data set [9]; 0.05 µg/mL (≈ 0.151 µM) in data set [10]; 0.1 µg/mL (≈ 0.302 µM) in data set [11]; 2 µg/mL (≈ 6.04 µM) in data set [12]; 1 µg/mL (≈ 3.02 µM) in [13]. Further, the MIC in data set [14] is 1 µg/mL (≈ 3.02 µM); in data set [15], 1 µg/mL (≈ 3.02 µM); in data set [16], 3.13 µg/mL (≈ 9.45 µM); in data set [17], 0.39 µg/mL (≈ 1.18 µM); in data set [18], 0.39 µg/mL (≈ 1.18 µM); in [19] it was 0.39 µg/mL (≈ 1.18 µM). Moreover, the MIC in [20] was 1.56 µg/mL (≈ 4.71 µM); in data set [21], 0.39 µg/mL (≈ 1.18 µM); in [22] it was 0.2 µg/mL (≈ 0.604 µM); in data set [23], 1.56 µg/mL (≈ 4.71 µM); in [25], 0.78 µg/mL (≈ 2.35 µM).

As for `Nc1c(F)c(N2CCNCC2)c(F)c2c1c(=O)c(C(=O)O)cn2C1CC1` [Compound B, 5-amino-1-cyclopropyl-6,8-difluoro-7-(1-piperazinyl)-1,4-dihydro-4-oxoquinoline-3-carboxylic acid, reference compound], the 50% effective dose (ED50) in [1] (mice, oral, four times (immediately, 6, 24 and 30 h after intraperitoneal infection), 14 days, calculated for free base) was 20.8 mg/kg; in [26] it was greater than 50 mg/kg. The MIC in data set [2] is 0.0063 µg/mL (≈ 0.0173 µM); in data set [3] it was 0.2 µg/mL (≈ 0.549 µM); in [4], 0.1 µg/mL (≈ 0.274 µM); in [5], 0.05 µg/mL (≈ 0.137 µM); in [6], 0.05 µg/mL (≈ 0.137 µM); in [7] (S. aureus Terajima, agar dilution, 37° C., calculated for free base) it was 0.025 µg/mL (≈ 0.0686 µM). The MIC worked out at 0.0063 µg/mL (≈ 0.0173 µM) in [8], 0.1 µg/mL (≈ 0.274 µM) in data set [9], 0.1 µg/mL (≈ 0.274 µM) in [10] and 0.05 µg/mL (≈ 0.137 µM) in [11].

Consider `CC1CN(c2c(F)c(N)c3c(=O)c(C(=O)O)cn(C4CC4)c3c2F)CC(C)N1` (centres unmarked) [Compound C, 5-amino-1-cyclopropyl-6,8-difluoro-7-(3,5-dimethyl-1-piperazinyl)-1,4-dihydro-4-oxoquinoline-3-carboxylic acid, reference compound], for which the dose excreted at 24 h in data set [27] turned out to be 4.51%.

One may read the ED50 as the dose that gives a 50% effect, or the effect in half of the subjects.

These data come from US5013841A, “Oxo quinoline derivatives” (Dainippon Pharmaceutical Co., Ltd., priority 1987, dated 1991).
